How the values were obtained:
[1] = system: IL-13 stimulated STAT6 phosphorylation in normal human epidermal keratinocytes; test: Assay 13: inhibition of IL-13 stimulated pSTAT6 in normal human epidermal keratinocytes; type: cell-based; settings: Keratinocyte, read-out: pIC50 for inhibition of IL-13 induced STAT6 phosphorylation (converted)
Experimental: Assay 13: Inhibition of IL-13 Stimulated pSTAT6 in Normal Human Epidermal Keratinocytes
The potency of test compounds for inhibition of interleukin-13 (IL-13) stimulated STAT6 phosphorylation was measured in the normal human epidermal keratinocytes (ATCC) using AlphaLisa. Phosphorylated STAT6 was measured via the AlphaLISA SureFire Ultra pSTAT6 (Tyr641) kit (PerkinElmer).
Primary epidermal keratinocytes were cultured in a 37° C., 5% CO2 humidified incubator in dermal cell basal medium (ATCC) supplemented with keratinocyte growth kit (ATCC) and 1× Pen/Strep (Life Technologies). […]
After cytokine stimulation, cells were lysed with 5 ul of 5× AlphaLisa Lysis Buffer (PerkinElmer) containing 1× PhosStop and Complete tablets (Roche). […] Phosphorylated STAT6 was measured via the pSTAT6 AlphaLisa kit (PerkinElmer). […] Luminescence was measured with excitation at 689 nm and emission at […] using an EnVision plate reader (PerkinElmer) under green filtered <100 lux light.
Luminescence signals were recorded and utilized to calculate the percent inhibition values based on DMSO and controls. For dose-response analysis, percent inhibition data were plotted vs. compound concentrations, and IC50 values were determined from a 4-parameter robust fit model with the Prism software.

JAK3 = target: T1, JAK3 (Homo sapiens, UniProt P52333); test: Biochemical JAK kinase assay (LanthaScreen), JAK3; settings: converted from pIC50 by Cheng-Prusoff; ATP at Km 1.6 μM; read-out: JAK 3 (pKi) (converted)
T1 construct: GST; purchased Life Technologies
T1 sequence (P52333 1-1124): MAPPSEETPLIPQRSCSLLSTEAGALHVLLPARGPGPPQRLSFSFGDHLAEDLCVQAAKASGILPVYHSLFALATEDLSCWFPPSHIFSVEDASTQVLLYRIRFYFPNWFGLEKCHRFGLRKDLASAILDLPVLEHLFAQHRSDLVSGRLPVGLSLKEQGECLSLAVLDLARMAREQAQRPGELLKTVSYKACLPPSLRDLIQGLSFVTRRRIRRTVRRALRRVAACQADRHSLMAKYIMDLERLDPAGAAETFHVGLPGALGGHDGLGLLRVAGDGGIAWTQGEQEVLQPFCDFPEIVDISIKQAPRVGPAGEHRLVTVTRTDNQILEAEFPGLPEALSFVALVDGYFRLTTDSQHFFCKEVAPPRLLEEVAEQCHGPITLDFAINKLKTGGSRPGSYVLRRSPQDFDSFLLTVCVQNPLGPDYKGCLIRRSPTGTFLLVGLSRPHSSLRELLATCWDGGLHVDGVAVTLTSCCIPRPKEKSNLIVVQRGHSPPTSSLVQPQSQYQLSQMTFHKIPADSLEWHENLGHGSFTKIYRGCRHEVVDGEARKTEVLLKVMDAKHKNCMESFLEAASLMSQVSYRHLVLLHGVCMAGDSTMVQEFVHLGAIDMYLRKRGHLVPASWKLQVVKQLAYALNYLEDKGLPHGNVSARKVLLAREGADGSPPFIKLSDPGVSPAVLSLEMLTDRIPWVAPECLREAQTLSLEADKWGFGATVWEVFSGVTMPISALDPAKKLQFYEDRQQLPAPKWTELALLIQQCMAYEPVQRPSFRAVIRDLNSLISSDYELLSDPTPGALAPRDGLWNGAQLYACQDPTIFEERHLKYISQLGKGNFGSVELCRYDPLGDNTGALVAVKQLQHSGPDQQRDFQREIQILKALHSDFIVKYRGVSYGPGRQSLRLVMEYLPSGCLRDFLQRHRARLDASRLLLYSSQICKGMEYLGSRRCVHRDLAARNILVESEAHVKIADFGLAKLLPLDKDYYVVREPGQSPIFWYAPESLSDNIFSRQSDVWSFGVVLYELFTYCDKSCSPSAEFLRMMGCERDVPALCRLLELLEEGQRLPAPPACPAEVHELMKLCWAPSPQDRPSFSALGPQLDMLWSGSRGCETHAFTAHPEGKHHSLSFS
Experimental: Assay 1: Biochemical JAK and Tyk2 Kinase Assays A panel of four LanthaScreen JAK biochemical assays (JAK1, 2, 3 and Tyk2) were carried in a common kinase reaction buffer (50 mM HEPES, pH 7.5, 0.01% Brij-35, 10 mM MgCl2, and 1 mM EGTA). Recombinant GST-tagged JAK enzymes and a GFP-tagged STAT1 peptide substrate were obtained from Life Technologies. Serially or discretely diluted compounds were pre-incubated with each of the four JAK enzymes and the substrate in white 384-well microplates (Corning) at ambient temperature for 1 h. ATP was subsequently added to initiate the kinase reactions in 10 μL total volume, with 1% DMSO. […] The plates were allowed to incubate at ambient temperature for 1 h before being read on the EnVision reader (Perkin Elmer). Emission ratio signals (520 nm/495 nm) were recorded and utilized to calculate the percent inhibition values based on DMSO and background controls. For dose-response analysis, percent inhibition data were plotted vs. compound concentrations, and IC50 values were determined from a 4-parameter robust fit model with the Prism software (GraphPad Software). Results were expressed as pIC50 (negative logarithm of IC50) and subsequently converted to pKi (negative logarithm of dissociation constant, Ki) using the Cheng-Prusoff equation.

CCS(=O)(=O)N1[C@@H]2CCC[C@H]1C[C@H](N(C)c1nc(CO)c(F)c(Nc3cc(C)[nH]n3)n1)C2 [Compound (I), (2-(((1R,3s,5S)-9-(ethylsulfonyl)-9-azabicyclo[3.3.1]nonan-3-yl)(methyl)amino)-5-fluoro-6-((5-methyl-1H-pyrazol-3-yl)amino)pyrimidin-4-yl)methanol]
IC50 [1]: 5.01 nM
Ki (JAK3): 0.794 nM

— US10774080B2, “Pyrimidine compound as JAK kinase inhibitor” (THERAVANCE BIOPHARMA R&D IP, LLC, priority 2017, dated 2020)
